Assay results as given in article PMC467095 (Journal of Enzyme Inhibition and Medicinal Chemistry, 2024).

How the values were obtained:
[1] = tested on: STZ-induced diabetes in mice; assay: Plasma insulin; assay type: in vivo; details: two weeks of treatment, mean of 6 mice ± SEM
α-glucosidase = assay: α-Glucosidase inhibition assay; assay type: biochemical; details: for IC50: read-out: α-Glucosidase IC50, Table 3, DF = 100
[2] = tested on: STZ-induced diabetes in mice; assay: Liver function markers; assay type: in vivo; details: plasma, two weeks of treatment, mean of 6 mice ± SEM
[3] = tested on: STZ-induced diabetes in mice; assay: Blood glucose in STZ-induced diabetes in mice; assay type: in vivo; details: p < 0.05
[4] = tested on: STZ-induced diabetes in mice; assay: Kidney function parameters; assay type: in vivo; details: two weeks of treatment, mean of 6 mice ± SEM; for Urea: plasma
[5] = tested on: STZ-induced diabetes in mice; assay: Oxidative stress markers; assay type: in vivo; details: plasma, two weeks of treatment, mean of 6 mice ± SEM

In the case of `O=C1CSC(N=C2c3ccccc3-c3nc4cc(F)ccc4nc32)=N1` [Compound 4], the Insulin [1] is reported as 11.44 ± 0.2^a^,^b ng/mL and the IC50 (α-glucosidase) is reported as 10.2 µM.
With `CCOC(=O)c1sc(N=C2c3ccccc3-c3nc4cc(F)ccc4nc32)nc1C` [Compound 6] the Insulin [1] was 12.28 ± 0.3^a^,^b ng/mL and the IC50 (α-glucosidase) was 3 µM.
With `CC(=O)c1sc(NN=C2c3ccccc3-c3nc4cc(F)ccc4nc32)nc1C` [Compound 8, 1–(2-(2–(7-fluoro-11H-indeno[1,2-b]quinoxalin-11-ylidene)-hydrazineyl)-4-methyl-thiazol-5-yl)-ethan-1-one] the Insulin [1] was 10.5 ± 0.3^a^,^b ng/mL and the IC50 (α-glucosidase) was 0.982 µM.
For `CCC1SC(NN=C2c3ccccc3-c3nc4cc(F)ccc4nc32)=NC1=O` (centres unmarked) [Compound 16], the Insulin [1] was 9.34 ± 0.3^a^,^b ng/mL, the IC50 (α-glucosidase) was 7.03 µM and the “α-glucosidase inhibition IC50” value (α-glucosidase; ± SD) was “good activity”.
With `Cc1ccc(S(=O)(=O)NC(=O)NN2CC3CCCC3C2)cc1` (centres unmarked) [Gliclazide] the Insulin [1] was 14.52 ± 0.4^a^,^b ng/mL, the Insulin ([1]; listed as gliclazide) was “rose” and the ALT [2] was 53.7 ± 0.7^a^,^b. The AST [2] was 39.8 ± 0.3^a^,^b, the ALT ([2]; listed as gliclazide) was “significant reduction” and the AST ([2]; listed as gliclazide) was “significant reduction”. The “Blood sugar levels compared to the STZ-only treatment group” value [3] was “declined significantly”, the Creat ([4]; plasma creatinine) was 3.3 ± 0.1^a^,^b and the Urea [4] was 57.5 ± 0.3^a^,^b. For the same molecule, the Urea ([4]; listed as gliclazide) was “significant lowering”, the GSH [5] was 3.15 ± 0.05^a^,^b and the MDA [5] was 22 ± 0.2^a^,^b. The GSH ([5]; listed as gliclazide) was “significant elevation” and the MDA ([5]; listed as gliclazide) was “significant reduction”.
